Measured values taken from US8759357B2, “Inhibitors of fatty acid binding protein (FABP)” (Merck Sharp & Dohme Corp., priority 2009, dated 2014).

Tests used:
[1] = target: FABP4 (Homo sapiens, UniProt P15090); test: TdF (Temperature Dependence Fluorescence) thermal shift assay for FABP4; format: binding; conditions: 3 μM protein; 15, 50 or 100 μM compound; Kd from ΔTm
From the text: TdF (Temperature Dependence Fluorescence) Assay for FABP3 and FABP4
The SAR (Structure Activity Relationship) for FABP3 and FABP4 ligands covered by this invention was interrogated using the TdF (Temperature Dependence Fluorescence) assay or best known as thermal shift assay (M. W. Pantoliana et al, J. Biomol. Screen 6 (2001) 429-440). The TdF assay was mainly conducted in the 96-well based CHROMO-4 real time fluorescence plate reader (BioRad). The Sypro Orange (Sigma-Aldrich), environmentally sensitive fluorescence dye, was used to monitor the protein folding-unfolding transition. Protein-ligand binding was gauged by the change (or shift) in the unfolding transition temperature (ΔTm) acquired at protein alone with respect to protein in the presence of ligand of interest.
The compound of interest was first prepared in DMSO stock (typical concentration: 10 mM). Sample of 20 μL was then added into the 96-well PCR plate, where it consisted of 3 μM protein (FABP4 or FABP3) and 15, 50 or 100 μM compound (depending on compound's solubility) in buffer (25 mM HEPES, 150 mM NaCl, pH=7.5 and 1 mM DTT) incorporated with Sypro Orange dye (5× final concentration). Final percentage of DMSO resided in the sample was 2%. The sample plate was heated from 30° C. to 90° C. with thermal ramping rate of 1° C./min. The fluorescence signals were acquired with excitation and emission wavelengths centered at 490 and 560 nm respectively. The instrument thermal stability was ±0.2° C. The melting Temperatures™ for FABP4 and FABP3 proteins under aforementioned conditions occurred at 61.0±0.2° C. and 64.8±0.2° C. respectively.
Theoretical Basis for TdF-Based Ligand Binding Affinity Constant
The derivation of TdF-based ligand binding affinity constant (Kd) followed closely those previously formulated by Brandts and Lin, Biochemistry 29 (1990) 6927-6940. In brief, the binding constant of the ligand at the Tm is expressed as below:
[formula] where T0 is the midpoint of unfolding for unliganded protein and Tm is the midpoint of unfolding in presence of ligand. [LTm] is free ligand at Tm. The ΔHu and ΔCpu are the enthalpy of unfolding and heat capacity change of unfolding for the protein respectively. The ΔCPu is proportional to the size of protein and is an approximate quantity in the above equation (empirically, ΔCpu=(MW of protein/115)*14 cal/mol*K). Following algorithm derived by Mayhood et al, (Analytical Biochemistry 345 (2005) 187-197), the T0 and ΔHu can be determined separately from nonlinear regression fitting the temperature dependent protein alone curve to the following equation: […]
Where F(T) is the observed fluorescence intensity at any temperature T, Yn and Yu are the predicted fluorescence intensities for fully folded and unfolded protein, respectively; mn and mu are slope correction for changes in Yn and Yu with respect to changes in temperature (analogously replace T0 with Tm in the above equation for liganded protein to yield Tm). The nonlinear regression fitting in general readily reaches convergence by properly constraining the initial values for the fitting parameters (e.g. the initial “guess” for the ΔHu was constrained to 120 kcal/mol; initial Yn and mn were set to 1 and zero to best represent the melting curve along the low temperature region; negative slope of −0.5 was initially chosen for mu; initial Tm was also constrained to 50° C.).
Finally, the ligand binding affinity constant at any temperature T 25° C.) can be thermodynamically connected to the preceding KL™ via
[formula] (see Brandts et al and Mayhood et al, shown above) where ΔHL (T) is the van't Hoff enthalpy of ligand binding at temperature T and ΔCpL is the heat capacity upon ligand binding. For simplicity, the ΔCpL and ΔHL (T) were set to zero and −7 kcal/mol respectively. […]

[2] = target: FABP5 (Homo sapiens, UniProt Q01469); test: TdCD (Temperature-Dependent Circular Dichroism) assay for FABP5; format: binding; conditions: compounds at 50 μM and 25 μM; Kd calculated at T=20° C.; 50% uncertainty
From the text: [formula] (see Brandts et al and Mayhood et al, shown above) where ΔHL (T) is the van't Hoff enthalpy of ligand binding at temperature T and ΔCpL is the heat capacity upon ligand binding. For simplicity, the ΔCpL and ΔHL (T) were set to zero and −7 kcal/mol respectively. (The ΔCpL accounts for minimal portion of total protein-ligand binding energetics and is therefore set to zero (For example, see Hossein Naghibi et al, Proc. Natl. Acad. Sci. 92, 5597-5599 (1995), where ΔCpL was estimated to ˜2% of ΔHL at 25° C. obtained from calorimetric study of binding Rnase A and 2′-CMP)). TdCD (Temperature-Dependent Circular Dichroism) Assay for FABP3/4/5
JASCO 810 spectropolarimeter was used to measure Circular Dichroism (CD) spectra and temperature-dependent protein unfolding profiles. The instrument is equipped with a 6-cell piezoelectric temperature controller. Ellipticity was monitored at 226 nm as a function of temperature with a 1 mm path length cell. The scan rate was 1° C./min with a 4 s response time and 30 s equilibration between measurements.
Stock protein FABP5 (3.5 mgs/mL), FABP4 (1.8 mgs/mL) and FABP3 (3 mgs/mL) were diluted to 10-15 μM with 25 mM HEPES pH 7.5, 150 mM NaCl, 1 mM DTT. 10 mM stocks of individual compounds were made in 100% DMSO. The compounds were tested at 50 μM and 25 μM concentrations. DMSO was added to protein-alone (apo) samples to 1% to compensate for DMSO amounts in protein+ligand samples. Data were analyzed using Jasco software and the midpoints of the protein unfolding Transitions™, and the ligand binding constants (KL) were calculated as previously described (See, for example, Mayhood et al, Analytical Biochemistry 345 (2005) 187-197; Smith et al, Biochemistry 46 (2007) 1358-1367; Brandts et al, Biochemistry 29 (1990) 6927-6940; and Matulis et al, Biochemistry 44 (2005) 5258-5266).
Briefly, the To (midpoint of unfolding for the unliganded protein) was calculated from best fit of the unfolding data to the equation below:
[formula] Where, Yobs is the observed ellipticity value at any temperature T, Yn and Yu are the predicted ellipticity values for fully folded and unfolded species, respectively, mn and mu are slope correction for changes in Yn and Yu with respect to changes in temperature. To is the midpoint temperature at which the unliganded protein unfolds and ΔHu and ΔCpu are the heat of unfolding and heat capacity of unfolding, respectively for the unliganded species.
In presence of ligand, the midpoint Temperature™ defines where the equilibrium concentrations of unfolded and folded species are equal. Incorporation of the unliganded free energy of binding and subsequent thermodynamic substitution yielded the binding constant of the ligand at the Tm value of unfolding:
[formula] where, T0 is the midpoint of unfolding for unliganded protein and Tm is the midpoint of unfolding in presence of ligand. [LTm] is free ligand at Tm.
Based on estimates for enthalpy of binding, ΔHL (estimated to be −7 kcal/mol) and ligand binding heat capacity ΔCpL (set to be zero), the ligand binding association constant (KL) at temperature T=20° C. were calculated as below. Based on reasonable boundary change of the estimated ligand binding ΔHL, a 50% uncertainty was uniformly assigned to the calculated TdCD Kd (1/KL) values at T=20° C.

Sequence of FABP4 (P15090 whole entry): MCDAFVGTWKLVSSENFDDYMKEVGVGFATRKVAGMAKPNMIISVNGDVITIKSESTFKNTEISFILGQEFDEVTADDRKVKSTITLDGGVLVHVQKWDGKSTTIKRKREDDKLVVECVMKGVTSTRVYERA
Sequence of FABP5 (Q01469 whole entry): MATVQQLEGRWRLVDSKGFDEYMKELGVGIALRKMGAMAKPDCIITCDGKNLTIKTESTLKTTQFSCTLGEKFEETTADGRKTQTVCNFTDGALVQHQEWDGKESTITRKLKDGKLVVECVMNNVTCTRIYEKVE

Row | SMILES | Kd [1] | Kd [2]
1 | CN(Cc1ccc(C(F)(F)F)cc1)Cc1cc(=O)n2nc(-c3ccccc3)nc2[nH]1 [1-53] | 0.2 to 5 µM | 0.5 to 100 µM
2 | O=c1cc(COC(c2ccccc2)C2CC2)[nH]c2nc(-c3ccccc3)nn12 (stereo not shown) [1-116] | 0.2 to 5 µM | 0.5 to 100 µM
3 | CC(OCc1cc(=O)n2nc(-c3ccccc3)nc2[nH]1)c1ccccc1Cl (stereo not shown) [1-117] | 0.001 to 0.2 µM | 0.5 to 100 µM
4 | O=c1cc(COCC2(c3cccc(F)c3)CC2)[nH]c2nc(-c3ccccc3)nn12 [1-119] | 0.001 to 0.2 µM | 0.5 to 100 µM
5 | CC(C)(Cc1ccccc1)OCc1cc(=O)n2nc(-c3ccccc3)nc2[nH]1 [1-120] | 0.001 to 0.2 µM | 0.5 to 100 µM
6 | CCC(OCc1cc(=O)n2nc(-c3ccccc3)nc2[nH]1)C1CCCCC1 (stereo not shown) [1-121] | 0.001 to 0.2 µM | 0.5 to 100 µM
7 | CCC[C@H](OCc1cc(=O)n2nc(-c3ccccc3)nc2[nH]1)c1ccccc1 [1-122] | > 5 µM | 0.5 to 100 µM
8 | CC[C@H](OCc1cc(=O)n2nc(-c3ccccc3)nc2[nH]1)c1ccccc1 [1-123] | > 5 µM | 0.5 to 100 µM
9 | CC(OCc1cc(=O)n2nc(-c3ccccc3)nc2[nH]1)C1CCCCC1 (stereo not shown) [1-124] | 0.001 to 0.2 µM | 0.5 to 100 µM
10 | O=c1cc(COCC2CCCCC2)[nH]c2nc(-c3ccccc3)nn12 [1-125] | 0.001 to 0.2 µM | 0.5 to 100 µM
11 | O=c1cc(COC(CC2CC2)c2ccccc2)[nH]c2nc(-c3ccccc3)nn12 (stereo not shown) [1-126] | 0.2 to 5 µM | 0.5 to 100 µM
12 | O=c1cc(COCc2cccnc2F)[nH]c2nc(-c3ccccc3)nn12 [1-127] | 0.2 to 5 µM | 0.5 to 100 µM
13 | O=c1cc(COCc2cccnc2Cl)[nH]c2nc(-c3ccccc3)nn12 [1-128] | 0.2 to 5 µM | 0.5 to 100 µM
14 | O=c1cc(COCC2(c3cccc(C(F)(F)F)c3)CC2)[nH]c2nc(-c3ccccc3)nn12 [1-129] | 0.001 to 0.2 µM | 0.5 to 100 µM
15 | C=CCC(OCc1cc(=O)n2nc(-c3ccccc3)nc2[nH]1)c1ccccc1Cl (stereo not shown) [1-130] | 0.001 to 0.2 µM | 0.5 to 100 µM
16 | CC(OCc1cc(=O)n2nc(-c3ccccc3)nc2[nH]1)c1ccccc1F (stereo not shown) [1-132] | 0.2 to 5 µM | 0.5 to 100 µM

Row | SMILES | Kd [1] | Kd [2]
17 | O=C(O)c1cccc(COCc2cc(=O)n3nc(-c4ccccc4)nc3[nH]2)c1 [1-133] | 0.2 to 5 µM | 0.5 to 100 µM
18 | O=c1cc(CNC2(c3cccc(C(F)(F)F)c3)CC2)[nH]c2nc(-c3ccccc3)nn12 [1-137] | 0.2 to 5 µM | 0.5 to 100 µM
19 | O=c1cc(CNCC2(c3cccc(C(F)(F)F)c3)CC2)[nH]c2nc(-c3ccccc3)nn12 [1-138] | 0.2 to 5 µM | 0.5 to 100 µM
20 | O=c1cc(COCc2ccccc2C(F)(F)F)[nH]c2nc(-c3ccccc3)nn12 [1-140] | > 5 µM | 0.5 to 100 µM
21 | O=c1cc(COCc2ccccc2)[nH]c2nc(-c3ccccc3)nn12 [1-144] | 0.2 to 5 µM | 0.5 to 100 µM
22 | O=c1cc(COCc2cccc(Cl)c2Cl)[nH]c2nc(-c3ccccc3)nn12 [1-145] | 0.2 to 5 µM | 0.5 to 100 µM
23 | CCC(OCc1cc(=O)n2nc(-c3ccccc3)nc2[nH]1)c1ccccc1Cl (stereo not shown) [1-153] | 0.001 to 0.2 µM | 0.5 to 100 µM
24 | O=c1cc(COCc2ccccc2Cl)[nH]c2nc(-c3ccccc3)nn12 [1-154] | 0.001 to 0.2 µM | 0.5 to 100 µM
25 | Cc1c(Cl)cccc1OC(C)(C)COCc1cc(=O)n2nc(-c3ccccc3)nc2[nH]1 [27-3] | 0.001 to 0.2 µM | 0.5 to 100 µM
26 | Cc1ccccc1OC(C)(C)COCc1cc(=O)n2nc(-c3ccccc3)nc2[nH]1 [27-4] | 0.001 to 0.2 µM | 0.5 to 100 µM
27 | O=c1cc(COCC(O)c2ccccc2Cl)[nH]c2nc(-c3ccccc3)nn12 (stereo not shown) [34-1] | > 5 µM | 0.5 to 100 µM
28 | O=c1cc(COC(CO)c2ccccc2Cl)[nH]c2nc(-c3ccccc3)nn12 (stereo not shown) [34-2] | > 5 µM | 0.5 to 100 µM
29 | CC(Cc1cc(=O)n2nc(-c3ccccc3)nc2[nH]1)(Oc1cccc(Cl)c1)C(=O)O (stereo not shown) [35-4] | > 5 µM | 0.5 to 100 µM
30 | CC(Cc1cc(=O)n2nc(-c3ccccc3)nc2[nH]1)(Oc1cccc(Cl)c1)C(=O)NCC1(c2ccccc2Cl)CC1 (stereo not shown) [35-5] | 0.001 to 0.2 µM | 0.5 to 100 µM
31 | COC(C)(Cc1cc(=O)n2nc(-c3ccccc3)nc2[nH]1)C(=O)NCC1(c2ccc(Cl)cc2)CCC1 (stereo not shown) [36-2] | 0.001 to 0.2 µM | 0.5 to 100 µM
32 | [2H]C([2H])([2H])OC(C(=O)NCC1(c2ccc(Cl)cc2)CCC1)(C([2H])([2H])[2H])C([2H])([2H])c1cc(=O)n2nc(-c3ccccc3)nc2[nH]1 (stereo not shown) [37-2] | 0.001 to 0.2 µM | 0.5 to 100 µM
